Some results are limits rather than exact numbers.

We go through 20 compounds from patent US8420657B2 (Novartis AG, priority 2008, dated 2013).

In one experiment the target is T1, GST-JAK2(808-1132) (Homo sapiens, UniProt O60674).
T1 construct: GST-JAK2(808-1132); purchased Invitrogen (Carlsbad, USA) #4288
As to the kind of experiment: JAK2 kinase assay (Caliper mobility shift, LabChip 3000). The experiment is classed as biochemical. In short, it runs like this:
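Eight-point compound series (final 10–0.003 μM) tested on purchased GST-JAK2 kinase domain (808-1132). Peptide FITC-JAK3tide plus ATP reacted 60 min, 30 °C, then quenched with EDTA; turnover from charge-based separation of substrate and product.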

Experiment [1] relates to JAK1/JAK2-dependent nuclear translocation of STAT1-GFP in HT1080 fibrosarcoma cells. As to the kind of experiment: STAT1 nuclear translocation assay (Cellomics), IFN-γ stimulated HT1080 STAT1-GFP cells. The experiment is classed as cell-based. In short, it runs like this:
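IC50 derived from percent nuclear STAT1-GFP translocation, computed from nuclear minus cytoplasmic GFP intensity against untreated baseline and DMSO-stimulated control. Stable HT1080 STAT1-GFP cells received compound (0.003–10 μM, 0.1% DMSO) 30 min ahead of a 2 h 100 ng/ml IFN-γ stimulus, then fixation and Hoechst nuclear masking.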

The mark [2] stands for this setting: Homo sapiens, HT-1080, STAT1 translocation pathway.

T1 sequence (O60674 808-1132): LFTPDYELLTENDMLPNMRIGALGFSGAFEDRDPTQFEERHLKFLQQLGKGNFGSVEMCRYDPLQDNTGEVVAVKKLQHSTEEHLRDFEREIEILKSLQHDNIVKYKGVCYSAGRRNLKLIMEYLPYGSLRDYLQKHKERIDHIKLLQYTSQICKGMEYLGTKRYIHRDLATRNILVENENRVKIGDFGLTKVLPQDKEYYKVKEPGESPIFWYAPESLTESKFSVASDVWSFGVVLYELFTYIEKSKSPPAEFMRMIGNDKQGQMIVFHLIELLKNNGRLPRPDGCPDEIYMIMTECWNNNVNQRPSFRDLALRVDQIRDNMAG

Regarding `COc1cc(Nc2ncc3cc(C)n(-c4ccc(CC(=O)N5CCN(C)CC5)cc4)c3n2)ccc1F` [Example 162, 2-{4-[2-(4-Fluoro-3-methoxy-phenylamino)-6-methyl-pyrrolo[2,3-d]pyrimidin-7-yl]-phenyl}-1-(4-methyl-piperazin-1-yl)-ethanone], the IC50 at GST-JAK2(808-1132) was 0.305 µM; in experiment [1] (setting [2]), 9.7 µM.

Turning to `C[C@@H]1CN(Cc2ccc(Nc3ncc4ccn(-c5cc(F)c(C(=O)N6CCOCC6)c(F)c5)c4n3)cc2)C[C@H](C)N1` [Example 255, (4-{2-[4-(cis-3,5-Dimethyl-piperazin-1-ylmethyl)-phenylamino]-pyrrolo[2,3-d]pyrimidin-7-yl}-2,6-difluoro-phenyl)-morpholin-4-yl-methanone], the figures for the IC50 (on GST-JAK2(808-1132); in experiment [1] (setting [2])) were 0.0069 µM and 0.115 µM, respectively.

As for `O=S1(=O)CCN(Cc2c(F)cc(-n3ccc4cnc(Nc5ccccn5)nc43)cc2F)CC1` [Example 181, {7-[4-(1,1-Dioxido-thiomorpholin-4-ylmethyl)-3,5-difluoro-phenyl]-7H-pyrrolo[2,3-d]pyrimidin-2-yl}-pyridin-2-yl-amine], the figures for the IC50 (at GST-JAK2(808-1132); in experiment [1] (setting [2])) were 0.0155 µM and 16.6 µM, respectively.

For the compound `CN1CCN(C(=O)c2ccc(-n3ccc4cnc(Nc5ccc(F)cc5)nc43)cc2)CC1` [Example 56, {4-[2-(4-Fluoro-phenylamino)-pyrrolo[2,3-d]pyrimidin-7-yl]-phenyl}-(4-methyl-piperazin-1-yl)-methanone], the values for the IC50 (on GST-JAK2(808-1132); in experiment [1] (setting [2])) were 0.032 µM and 4.67 µM, respectively.

In the case of `Cc1ccc(Nc2ncc3ccn(-c4ccc(CN5CCOCC5)cc4)c3n2)cc1` [Example 146, [7-(4-Morpholin-4-ylmethyl-phenyl)-7H-pyrrolo[2 3-d]pyrimidin-2-yl]-p-tolyl-amine], the concentration for half-maximal inhibition (IC50) on GST-JAK2(808-1132) was determined as 0.03 µM; in experiment [1] (setting [2]), 2.51 µM.

As to `CN1CCN(c2cccc(Nc3ncc4ccn(-c5cc(F)c(CN6CCOCC6)c(F)c5)c4n3)c2)CC1` [Example 174, [7-(3,5-Difluoro-4-morpholin-4-ylmethyl-phenyl)-7H-pyrrolo[2,3-d]pyrimidin-2-yl]-[3-(4-methyl-piperazin-1-yl)-phenyl]-amine], the IC50 on GST-JAK2(808-1132) is below 0.003 µM; in experiment [1] (setting [2]), 0.15 µM.

As for `CS(=O)(=O)c1ccc(-n2ccc3cnc(Nc4ccc(N5CCNC6(CC6)C5)nc4)nc32)cc1` [Example 272, [6-(4,7-Diaza-spiro[2.5]oct-7-yl)-pyridin-3-yl]-[7-(4-methanesulfonyl-phenyl)-7H-pyrrolo[2,3-d]pyrimidin-2-yl]-amine], the IC50 is 0.011 µM at GST-JAK2(808-1132) and 0.175 µM in experiment [1] (setting [2]).

Regarding `COc1ccc(Nc2ncc3ccn(-c4cc(F)c(C(=O)N5CCOCC5)c(F)c4)c3n2)cn1` [Example 220], the IC50 was determined as 0.011 µM at GST-JAK2(808-1132) and 0.88 µM in experiment [1] (setting [2]).

`Cc1ccc(Nc2ncc3ccn(-c4cc(F)c(CN5CCN(C)CC5)c(F)c4)c3n2)cc1C` [Example 304, {7-[3,5-Difluoro-4-(4-methyl-piperazin-1-ylmethyl)-phenyl]-7H-pyrrolo[2,3-d]pyrimidin-2-yl}-(3,4-dimethyl-phenyl)-amine]: the 50% inhibitory concentration (IC50) at GST-JAK2(808-1132) worked out at 0.0135 µM; in experiment [1] (setting [2]) it was 1.49 µM.

Consider `O=C(c1ccc(Nc2ncc3ccn(-c4cc(F)c(CN5CCOCC5)c(F)c4)c3n2)cc1)N1CCOCC1` [Example 138, {4-[7-(3,5-Difluoro-4-morpholin-4-ylmethyl-phenyl)-7H-pyrrolo[2,3-d]pyrimidin-2-ylamino]-phenyl}-morpholin-4-yl-methanone], for which the IC50 at GST-JAK2(808-1132) is below 0.003 µM; in experiment [1] (setting [2]) it was 0.165 µM.

Regarding `CC(C)Oc1ccc(Nc2ncc3ccn(-c4ccc(CN5CCOCC5)c(Cl)c4)c3n2)cc1` [Example 110, [7-(3-Chloro-4-morpholin-4-yl methyl-phenyl)-7H-pyrrolo[2,3-d]pyrimidin-2-yl]-(4-isopropoxy-phenyl)-amine], the figures for the concentration for half-maximal inhibition (IC50) (on GST-JAK2(808-1132); in experiment [1] (setting [2])) were 0.0135 µM and 1.11 µM, respectively.

For `C[C@@H]1CN(Cc2ccc(Nc3ncc4ccn(-c5cc(F)c(C(=O)N6CCOCC6)c(F)c5)c4n3)cc2)[C@@H](C)CN1` (racemic) [Example 261, (4-{2-[4-((2S,5R)-2,5-Dimethyl-piperazin-1-ylmethyl)-phenylamino]-pyrrolo[2,3-d]pyrimidin-7-yl}-2,6-difluoro-phenyl)-morpholin-4-yl-methanone], the values for the half-inhibitory concentration (IC50) (at GST-JAK2(808-1132); in experiment [1] (setting [2])) were 0.012 µM and 0.18 µM, respectively.

For the compound `CN1CCN(Cc2ccc(Nc3ncc4ccn(-c5cc(F)c(CN6CCOCC6)c(F)c5)c4n3)cc2)CC1` [Example 173, [7-(3,5-Difluoro-4-morpholin-4-ylmethyl-phenyl)-7H-pyrrolo[2,3-d]pyrimidin-2-yl]-[4-(4-methyl-piperazin-1-ylmethyl)-phenyl]-amine], the IC50 turned out to be 0.0055 µM at GST-JAK2(808-1132) and 0.235 µM in experiment [1] (setting [2]).

For `COc1ccc(Nc2ncc3ccn(-c4ccc(S(C)(=O)=O)cc4)c3n2)cn1` [Example 230, [7-(4-Methanesulfonyl-phenyl)-7H-pyrrolo[2,3-d]pyrimidin-2-yl]-(6-methoxy-pyridin-3-yl)-amine], the IC50 was 0.0205 µM on GST-JAK2(808-1132) and 2.48 µM in experiment [1] (setting [2]).

In the case of `Cc1cc(Nc2ncc3ccn(-c4ccc(C(=O)N5CCN(C)CC5)c(F)c4)c3n2)ccc1F` [Example 88, {2-Fluoro-4-[2-(4-fluoro-3-methyl-phenylamino)-pyrrolo[2,3-d]pyrimidin-7-yl]-phenyl}-(4-methyl-piperazin-1-yl)-methanone], the IC50 at GST-JAK2(808-1132) is 0.0089 µM; in experiment [1] (setting [2]) it was 3.27 µM.

For the compound `CC(C)Oc1ccc(Nc2ncc3ccn(-c4ccc(N5CCCC5=O)cc4)c3n2)cc1` [Example 105, 1-{4-[2-(4-Isopropoxy-phenylamino)-pyrrolo[2,3-d]pyrimidin-7-yl]-phenyl}-pyrrolidin-2-one], the IC50 at GST-JAK2(808-1132) stood at 0.0115 µM; in experiment [1] (setting [2]), 5.84 µM.

As to `N#Cc1ccc(Nc2ncc3ccn(-c4cc(F)c(CN5CCS(=O)(=O)CC5)c(F)c4)c3n2)cc1` [Example 185, 4-{7-[4-(1,1-Dioxido-thiomorpholin-4-ylmethyl)-3,5-difluoro-phenyl]-7H-pyrrolo[2,3-d]pyrimidin-2-ylamino}-benzonitrile], the concentration for half-maximal inhibition (IC50) at GST-JAK2(808-1132) was below 0.003 µM; in experiment [1] (setting [2]), 0.29 µM.

Take `CN1CCN(C(=O)c2ccc(Nc3ncc4ccn(-c5ccc(S(C)(=O)=O)cc5)c4n3)cc2F)CC1` [Example 71, {2-Fluoro-4-[7-(4-methanesulfonyl-phenyl)-7H-pyrrolo[2,3-d]pyrimidin-2-ylamino]-phenyl}-(4-methyl-piperazin-1-yl)-methanone]: the IC50 at GST-JAK2(808-1132) was 0.0068 µM; in experiment [1] (setting [2]) it was 0.362 µM.

Regarding `Cc1cc(Nc2ncc3ccn(-c4cc(F)c(C(=O)N5CCOCC5)c(F)c4)c3n2)ccc1F` [Example 89, {2,6-Difluoro-4-[2-(4-fluoro-3-methyl-phenylamino)-pyrrolo[2,3-d]pyrimidin-7-yl]-phenyl}-morpholin-4-yl-methanone], the IC50 is below 0.003 µM on GST-JAK2(808-1132) and 0.41 µM in experiment [1] (STAT1 translocation pathway).

Take `CN1CCN(C(=O)Cc2ccc(-n3ccc4cnc(Nc5ccc(C(F)(F)F)cc5)nc43)cc2)CC1` [Example 145, 1-(4-Methyl-piperazin-1-yl)-2-{4-[2-(4-trifluoromethyl-phenylamino)-pyrrolo[2,3-d]pyrimidin-7-yl]-phenyl}-ethanone]: the figures for the IC50 (at GST-JAK2(808-1132); in experiment [1] (setting [2])) were 0.007 µM and 0.365 µM, respectively.
